For 14 compounds, IC50 results are on record in ChEMBL document CHEMBL1152016, “Synthesis and -lactamase inhibition of anacardic acids and their analogues” (Bioorg Med Chem Lett, 1994).

Molecules are shown by their SMILES. Values after ≈ are worked out from the molar mass of the structure shown.

The target of experiment [1] is T1, Beta-lactamase (Staphylococcus aureus, UniProt P00807). Briefly: Concentration required for its inhibitory activity against Staphylococcus aureus Russel class A beta-lactamase; No inhibition.
Experiment [2] has as its target T2, Beta-lactamase pse-1 (Escherichia coli, UniProt Q2V0Y6).
T2 sequence (Q2V0Y6 whole entry): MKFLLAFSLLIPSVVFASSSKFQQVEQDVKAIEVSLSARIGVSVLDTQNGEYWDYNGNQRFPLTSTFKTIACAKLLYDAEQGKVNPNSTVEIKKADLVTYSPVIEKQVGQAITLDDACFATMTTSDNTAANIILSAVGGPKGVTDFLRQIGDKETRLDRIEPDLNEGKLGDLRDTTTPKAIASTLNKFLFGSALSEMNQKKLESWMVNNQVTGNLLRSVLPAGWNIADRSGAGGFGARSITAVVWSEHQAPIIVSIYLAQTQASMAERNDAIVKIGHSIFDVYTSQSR
Briefly: Concentration required for its inhibitory activity against Escherichia coli K12(PSE4) class A beta-lactamase.

Experiment [3] addresses Beta-lactamase (Enterobacter cloacae, UniProt P05364). Briefly: Concentration required for its inhibitory activity against Enterobacter cloacae P99 class C beta-lactamase.
Experiment [4] has as its target Beta-lactamase TEM (Escherichia coli, UniProt P62593). The experiment is described as follows: Concentration required for its inhibitory activity against Escherichia coli JT4(TEM1) class A beta-lactamase.
For experiment [5], the target named is T1, Beta-lactamase. The experiment is described as follows: Concentration required for its inhibitory activity against Staphylococcus aureus Russel class A beta-lactamase.
Experiment [6] has as its target T3, Beta-lactamase (Proteus mirabilis, UniProt P30897).
T3 sequence (P30897 whole entry): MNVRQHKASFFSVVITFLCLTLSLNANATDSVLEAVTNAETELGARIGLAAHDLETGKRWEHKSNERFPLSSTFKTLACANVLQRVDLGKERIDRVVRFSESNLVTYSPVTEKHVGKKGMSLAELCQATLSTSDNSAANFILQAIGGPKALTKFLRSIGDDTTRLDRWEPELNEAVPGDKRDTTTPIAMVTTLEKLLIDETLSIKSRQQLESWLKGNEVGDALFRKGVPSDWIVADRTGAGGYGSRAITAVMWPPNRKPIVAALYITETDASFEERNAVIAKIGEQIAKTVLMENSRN
Briefly: Concentration required for its inhibitory activity against Proteus mirabilis C889 class A beta-lactamase; No inhibition.

The target in experiment [7] is Beta-lactamase (Pseudomonas aeruginosa (strain ATCC 15692 / PAO1 / 1C / PRS 101 / LMG12228), UniProt P24735). The experiment is described as follows: Concentration required for its inhibitory activity against Pseudomonas aeruginosa class C beta-lactamase.
Experiment [8] has as its target T4, Beta-lactamase OXA-1 (Escherichia coli, UniProt P13661). The experiment is described as follows: Concentration required for its inhibitory activity against Escherichia coli K12(OXA1) class D beta-lactamase.
The target of experiment [9] is T3, Beta-lactamase. Briefly: Concentration required for its inhibitory activity against Proteus mirabilis C889 class A beta-lactamase.
Experiment [10] concerns the target T4, Beta-lactamase OXA-1. The experiment is described as follows: Concentration required for its inhibitory activity against Escherichia coli K12(OXA1) class D beta-lactamase; No inhibition.

T4 sequence (P13661 whole entry): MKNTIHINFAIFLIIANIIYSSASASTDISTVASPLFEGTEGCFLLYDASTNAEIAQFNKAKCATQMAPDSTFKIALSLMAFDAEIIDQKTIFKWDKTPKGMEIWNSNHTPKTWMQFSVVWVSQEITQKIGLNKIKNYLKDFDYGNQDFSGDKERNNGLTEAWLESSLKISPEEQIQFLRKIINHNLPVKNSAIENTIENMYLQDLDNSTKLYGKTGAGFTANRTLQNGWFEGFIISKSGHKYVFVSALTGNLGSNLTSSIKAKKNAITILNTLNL
T1 sequence (P00807 whole entry): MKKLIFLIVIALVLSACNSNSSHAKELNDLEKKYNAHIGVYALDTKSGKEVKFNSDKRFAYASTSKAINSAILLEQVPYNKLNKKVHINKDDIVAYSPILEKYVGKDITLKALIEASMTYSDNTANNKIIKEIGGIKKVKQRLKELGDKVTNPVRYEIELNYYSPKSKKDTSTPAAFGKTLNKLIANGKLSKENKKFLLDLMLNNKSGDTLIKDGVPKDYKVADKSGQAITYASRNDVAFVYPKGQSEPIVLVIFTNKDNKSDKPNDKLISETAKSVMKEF
Chain of Beta-lactamase TEM (P62593 whole entry): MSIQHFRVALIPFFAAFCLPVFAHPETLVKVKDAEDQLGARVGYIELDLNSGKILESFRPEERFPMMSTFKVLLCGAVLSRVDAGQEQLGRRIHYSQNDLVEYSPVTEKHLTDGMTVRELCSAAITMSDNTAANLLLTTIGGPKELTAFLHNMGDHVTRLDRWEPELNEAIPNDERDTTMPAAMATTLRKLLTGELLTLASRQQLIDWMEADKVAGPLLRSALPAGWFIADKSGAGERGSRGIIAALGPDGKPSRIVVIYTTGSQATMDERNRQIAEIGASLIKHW
Chain of Beta-lactamase (Pseudomonas aeruginosa (strain ATCC 15692 / PAO1 / 1C / PRS 101 / LMG12228), UniProt P24735) (P24735 whole entry): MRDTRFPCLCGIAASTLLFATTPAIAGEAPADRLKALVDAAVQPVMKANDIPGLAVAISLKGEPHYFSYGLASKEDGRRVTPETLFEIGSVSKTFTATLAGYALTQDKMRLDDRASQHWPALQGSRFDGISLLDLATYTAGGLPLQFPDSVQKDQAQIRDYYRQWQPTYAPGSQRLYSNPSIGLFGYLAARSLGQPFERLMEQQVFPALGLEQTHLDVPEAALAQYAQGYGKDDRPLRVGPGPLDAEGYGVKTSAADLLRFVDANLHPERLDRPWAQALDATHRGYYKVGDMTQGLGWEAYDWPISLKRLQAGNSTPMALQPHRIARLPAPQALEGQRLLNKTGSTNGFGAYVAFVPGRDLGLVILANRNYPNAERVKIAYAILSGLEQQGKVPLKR
Chain of Beta-lactamase (Enterobacter cloacae, UniProt P05364) (P05364 whole entry): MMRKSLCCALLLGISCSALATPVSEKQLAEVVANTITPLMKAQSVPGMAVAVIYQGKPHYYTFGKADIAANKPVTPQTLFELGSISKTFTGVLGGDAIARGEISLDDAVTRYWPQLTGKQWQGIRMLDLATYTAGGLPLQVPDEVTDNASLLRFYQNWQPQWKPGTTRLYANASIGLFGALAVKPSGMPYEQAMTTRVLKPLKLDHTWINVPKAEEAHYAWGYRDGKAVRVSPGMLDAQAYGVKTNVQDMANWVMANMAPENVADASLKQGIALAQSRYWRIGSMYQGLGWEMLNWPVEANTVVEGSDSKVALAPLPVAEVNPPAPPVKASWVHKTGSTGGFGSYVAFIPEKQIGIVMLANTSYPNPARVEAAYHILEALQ

In the case of `CCC=CCC=CCC=CCCCCCCCc1cccc(O)c1C(=O)O`, the concentration for half-maximal inhibition (IC50) (commonly the midpoint of a concentration-inhibition curve) is “Not Active” in experiment [1], 10 µg/mL (≈ 27 µM) in experiment [2] and 17 µg/mL (≈ 45.9 µM) in experiment [3].

With `CCCCCCCCCCc1cccc(O)c1C(=O)O`, the IC50 result was “Not Active” in experiment [1] and 12 µg/mL (≈ 43.1 µM) in experiment [4].

For `O=C(O)[C@H]1/C(=C/CO)O[C@@H]2CC(=O)N21` [CLAVULANIC ACID], in [2], the IC50 worked out at 0.015 µg/mL (≈ 0.0753 µM).

Consider `CCCCCCCCCCc1cccc(O)c1`, for which the IC50 entry in [5] was “Not Active”; in experiment [2], 4.1 µg/mL (≈ 17.5 µM); in experiment [3], 4.5 µg/mL (≈ 19.2 µM); in [6], “Not Active”; in experiment [4] it was 1.9 µg/mL (≈ 8.11 µM).

For the compound `CCC(C)CCCCCCCCCCCCc1cccc(O)c1C(=O)O` (stereo not given), the IC50 was determined as 31 µg/mL (≈ 85.5 µM) in experiment [3], 36 µg/mL (≈ 99.3 µM) in experiment [7] and 10 µg/mL (≈ 27.6 µM) in [4].

Consider `CC(C)CCCCCCCCCCCCCc1cccc(O)c1C(=O)O`, for which the IC50 result was “Not Active” in experiment [1], 9 µg/mL (≈ 24.8 µM) in experiment [3], 16 µg/mL (≈ 44.1 µM) in [7] and 9.7 µg/mL (≈ 26.8 µM) in experiment [4].

As for `CCCCCCCCCCc1ccccc1C(=O)O`, the IC50 entry was “Not Active” in [1] and 18 µg/mL (≈ 68.6 µM) in [4].

`C=CC/C=C\C/C=C\CCCCCCCc1cccc(O)c1C(=O)O` [ANACARDIC ACID]: the concentration for half-maximal inhibition (IC50) result in experiment [1] was “Not Active”; in experiment [8], 25 µg/mL (≈ 73 µM); in experiment [2], 1.1 µg/mL (≈ 3.21 µM); in experiment [3], 1.4 µg/mL (≈ 4.09 µM); in [9] it was 31 µg/mL (≈ 90.5 µM); in experiment [7] it was 7.2 µg/mL (≈ 21 µM). Also, the midpoint of inhibition in [4], the IC50, lay at 0.8 µg/mL (≈ 2.34 µM).

Consider `CCCCCCCCCCCCCCCCCc1cccc(O)c1C(=O)O`, for which the IC50 result was “Not Active” in experiment [1]; 29 µg/mL (≈ 77 µM) in [8]; 0.7 µg/mL (≈ 1.86 µM) in experiment [2]; 1 µg/mL (≈ 2.66 µM) in experiment [3]; 8.3 µg/mL (≈ 22 µM) in [9]; 9.1 µg/mL (≈ 24.2 µM) in experiment [7]. For the same compound, in [4], half-maximal inhibition (IC50) required 1.9 µg/mL (≈ 5.05 µM).

As to `CCCCCCCCCCCCCCCc1cccc(O)c1`, the IC50 in [2] was 20 µg/mL (≈ 65.7 µM); in experiment [3], 7.2 µg/mL (≈ 23.6 µM); in [6] it was “Not Active”.

Consider `CCCCCCCCCCCCCCCc1cccc(OC)c1C(=O)O`, for which the IC50 result in experiment [1] was “Not Active”; in [8], > 33 µg/mL; in [2] it was 0.6 µg/mL (≈ 1.65 µM); in experiment [3], 2.5 µg/mL (≈ 6.9 µM); in experiment [9], 22 µg/mL (≈ 60.7 µM); in [7], 11 µg/mL (≈ 30.3 µM). Besides, half-maximal inhibition in experiment [4] (IC50) required 0.8 µg/mL (≈ 2.21 µM).

Regarding `CCCCCCCCCCCCCCCc1cccc(O)c1O`, half-maximal inhibition in experiment [3] (IC50) required 29 µg/mL (≈ 90.5 µM).

Regarding `CCCCCCCCc1cccc(O)c1C(=O)O`, the IC50 result in experiment [1] is “Not Active”; in experiment [10], “Not Active”; in experiment [2] it was 16 µg/mL (≈ 63.9 µM); in experiment [9] it was 3.9 µg/mL (≈ 15.6 µM).

In turn, `CCCCCCCCCCc1cccc(O)c1O` showed an IC50 in experiment [3] of 21 µg/mL (≈ 83.9 µM).
